The term Ki denotes the equilibrium dissociation constant of an inhibitor or competing ligand from its target. The term EC50 denotes the concentration that produces a half-maximal response.

Some results are limits rather than exact numbers.

These results are taken from patent publication US8580794B2 (AbbVie Inc., priority 2009, dated 2013).

For experiment [1], the system named is RS4;11 cells. To be noted: Blood, 2008, Vol. 111, 2300-2309; cited from earlier work.
The target in a further experiment is GST-Bc1-2 (Homo sapiens, UniProt P10415). Put plainly: Time Resolved-Fluorescence Resonance Energy Transfer (TR-FRET) Bcl-2 binding assay with F-Bak peptide probe. To be noted: GST-Bcl-2 1 nM, F-Bak probe 100 nM, Tb-anti-GST 1 nM; '<' = below limit of detection; read-out: TR-FRET Bcl-2 Binding Ki.
Chain of GST-Bc1-2 (P10415 whole entry): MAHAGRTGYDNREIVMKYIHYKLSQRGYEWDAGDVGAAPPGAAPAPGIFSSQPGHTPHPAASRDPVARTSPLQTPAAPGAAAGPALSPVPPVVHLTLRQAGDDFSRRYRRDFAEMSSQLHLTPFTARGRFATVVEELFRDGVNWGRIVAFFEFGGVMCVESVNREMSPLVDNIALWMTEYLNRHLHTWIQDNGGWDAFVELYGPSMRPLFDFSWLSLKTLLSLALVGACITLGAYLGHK
Experiment [2] has as its system RS4;11 cells. The experiment is described as follows: RS4;11 Cell Viability Assay (CellTiter Glo).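 Further: RS4,11 acute lymphoblastic leukemia cells, viability as percent of untreated control cells, EC50 for loss of viable cells.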 The experiment is classed as cell-based. To be noted: Homo sapiens, RS4-11, 48 h, 50,000 cells per well, 10% human serum. For orientation: In ATP-based viability assays light output follows the ATP content of the culture.
Method: The acute lymphoblastic leukemia (ALL) cell line RS4;11 was used as the primary human cell line to assess the cellular activity of Bcl-2 selective agents in vitro and their efficacy in vivo.
Cell cytotoxicity EC50 values were assessed using CellTiter Glo (Promega) according to the manufacturer's recommendations. The EC50 values were determined as a percentage of viable cells following treatment compared to the untreated control cells.

As for `CN(C)CC[C@H](CSc1ccccc1)Nc1ccc(S(=O)(=O)NC(=O)c2ccc(N3CCN(Cc4ccccc4-c4ccc(Cl)cc4)CC3)cc2)cc1[N+](=O)[O-]` [ABT-737, N-(4-(4-((4′-chloro(1,1′-biphenyl)-2-yl)methyl)piperazin-1-yl)benzoyl)-4-(((1R)-3-(dimethylamino)-1-((phenylsulfanyl)methyl)propyl)amino)-3-nitrobenzenesulfonamide], the “sensitivity of RS4;11 cells to inhibitor” value in the experiment with RS4;11 cells [1] is reported as “sensitive”.
Turning to `CC1(C)CCC(CN2CCN(c3ccc(C(=O)NS(=O)(=O)c4cnc5c(c4)c(Cl)cn5CC4CCOCC4)c(Oc4cnc5[nH]ccc5c4)c3)CC2)=C(c2ccc(Cl)cc2)C1` [Example 389, 4-(4-{[2-(4-chlorophenyl)-4,4-dimethylcyclohex-1-en-1-yl]methyl}piperazin-1-yl)-N-{[3-chloro-1-(tetrahydro-2H-pyran-4-ylmethyl)-1H-pyrrolo[2,3-b]pyridin-5-yl]sulfonyl}-2-(1H-pyrrolo[2,3-b]pyridin-5-yloxy)benzamide], the Ki on GST-Bc1-2 is 0.774 nM. The response in the experiment with RS4;11 cells [2] was half-maximal at 733 nM (EC50).
On the same counts, the results for `COCC1(C)CCC(CN2CCN(c3ccc(C(=O)NS(=O)(=O)c4ccc(NCC5CCOCC5)c([N+](=O)[O-])c4)c(Oc4cnc5[nH]ccc5c4)c3)CC2)=C(c2ccc(Cl)cc2)C1` (stereo not drawn) [Example 390, 4-(4-{[2-(4-chlorophenyl)-4-(methoxymethyl)-4-methylcyclohex-1-en-1-yl]methyl}piperazin-1-yl)-N-({3-nitro-4-[(tetrahydro-2H-pyran-4-ylmethyl)amino]phenyl}sulfonyl)-2-(1H-pyrrolo[2,3-b]pyridin-5-yloxy)benzamide] are less than 0.01 nM and 5.06 nM.
For `CC1(C)CCC(CN2CCN(c3ccc(C(=O)NS(=O)(=O)c4ccc(OCC5CCC(CO)(CO)CC5)c([N+](=O)[O-])c4)c(Oc4cnc5[nH]ccc5c4)c3)CC2)=C(c2ccc(Cl)cc2)C1` [Example 391, N-[(4-{[4,4-bis(hydroxymethyl)cyclohexyl]methoxy}-3-nitrophenyl)sulfonyl]-4-(4-{[2-(4-chlorophenyl)-4,4-dimethylcyclohex-1-en-1-yl]methyl}piperazin-1-yl)-2-(1H-pyrrolo[2,3-b]pyridin-5-yloxy)benzamide], in that order: less than 0.01 nM and 8.41 nM.
For `COC1CCN(C(=O)Nc2ccc(S(=O)(=O)NC(=O)c3ccc(N4CCN(CC5=C(c6ccc(Cl)cc6)CC(C)(C)CC5)CC4)cc3Oc3cnc4[nH]ccc4c3)cc2Cl)CC1` [Example 392, N-(2-chloro-4-{[4-(4-{[2-(4-chlorophenyl)-4,4-dimethylcyclohex-1-en-1-yl]methyl}piperazin-1-yl)-2-(1H-pyrrolo[2,3-b]pyridin-5-yloxy)benzoyl]sulfamoyl}phenyl)-4-methoxypiperidine-1-carboxamide], in that order: 0.171 nM and more than 1000 nM.
For the compound `CC1(C)CCC(CN2CCN(c3ccc(C(=O)NS(=O)(=O)c4ccc(NC(=O)N5CCC(C#N)CC5)c(Cl)c4)c(Oc4cnc5[nH]ccc5c4)c3)CC2)=C(c2ccc(Cl)cc2)C1` [Example 393, N-(2-chloro-4-{[4-(4-{[2-(4-chlorophenyl)-4,4-dimethylcyclohex-1-en-1-yl]methyl}piperazin-1-yl)-2-(1H-pyrrolo[2,3-b]pyridin-5-yloxy)benzoyl]sulfamoyl}phenyl)-4-cyanopiperidine-1-carboxamide], the Ki at GST-Bc1-2 turned out to be 0.263 nM. In addition, in the experiment with RS4;11 cells [2], the EC50 was more than 1000 nM.
For `CC1(C)CCC(CN2CCN(c3ccc(C(=O)NS(=O)(=O)c4ccc(NC(=O)N5CCC(C)(O)CC5)c(Cl)c4)c(Oc4cnc5[nH]ccc5c4)c3)CC2)=C(c2ccc(Cl)cc2)C1` [Example 394, N-(2-chloro-4-{[4-(4-{[2-(4-chlorophenyl)-4,4-dimethylcyclohex-1-en-1-yl]methyl}piperazin-1-yl)-2-(1H-pyrrolo[2,3-b]pyridin-5-yloxy)benzoyl]sulfamoyl}phenyl)-4-hydroxy-4-methylpiperidine-1-carboxamide], in that order: 0.132 nM and 461 nM.
On the same counts, the results for `COCC1CCN(C(=O)Nc2ccc(S(=O)(=O)NC(=O)c3ccc(N4CCN(CC5=C(c6ccc(Cl)cc6)CC(C)(C)CC5)CC4)cc3Oc3cnc4[nH]ccc4c3)cc2Cl)CC1` [Example 395, N-(2-chloro-4-{[4-(4-{[2-(4-chlorophenyl)-4,4-dimethylcyclohex-1-en-1-yl]methyl}piperazin-1-yl)-2-(1H-pyrrolo[2,3-b]pyridin-5-yloxy)benzoyl]sulfamoyl}phenyl)-4-(methoxymethyl)piperidine-1-carboxamide] are 0.257 nM and more than 1000 nM.
On the same counts, the results for `CC1(C)CCC(CN2CCN(c3ccc(C(=O)NS(=O)(=O)c4ccc(NC(=O)N5CCC(N6CCOCC6)CC5)c(Cl)c4)c(Oc4cnc5[nH]ccc5c4)c3)CC2)=C(c2ccc(Cl)cc2)C1` [Example 398, N-(2-chloro-4-{[4-(4-{[2-(4-chlorophenyl)-4,4-dimethylcyclohex-1-en-1-yl]methyl}piperazin-1-yl)-2-(1H-pyrrolo[2,3-b]pyridin-5-yloxy)benzoyl]sulfamoyl}phenyl)-4-(morpholin-4-yl)piperidine-1-carboxamide] are 0.149 nM and 548 nM.
Take `COCC1(O)CCC(COc2ncc(S(=O)(=O)NC(=O)c3ccc(N4CCN(CC5=C(c6ccc(Cl)cc6)CC(C)(C)CC5)CC4)cc3Oc3cnc4[nH]ccc4c3)cc2Cl)CC1` (stereo not drawn) [Example 399, N-[(5-chloro-6-{[trans-4-hydroxy-4-(methoxymethyl)cyclohexyl]methoxy}pyridin-3-yl)sulfonyl]-4-(4-{[2-(4-chlorophenyl)-4,4-dimethylcyclohex-1-en-1-yl]methyl}piperazin-1-yl)-2-(1H-pyrrolo[2,3-b]pyridin-5-yloxy)benzamide]: the inhibition constant (Ki) on GST-Bc1-2 was less than 0.01 nM. Further, the half-maximal effective concentration (EC50) with RS4;11 cells [2] came to 127 nM.
On the same counts, the results for `CC1(C)CCC(CN2CCN(c3ccc(C(=O)NS(=O)(=O)c4cnc(OC[C@H]5CC[C@](O)(CO)CC5)c(Cl)c4)c(Oc4cnc5[nH]ccc5c4)c3)CC2)=C(c2ccc(Cl)cc2)C1` [Example 400, N-[(5-chloro-6-{[cis-4-hydroxy-4-(hydroxymethyl)cyclohexyl]methoxy}pyridin-3-yl)sulfonyl]-4-(4-{[2-(4-chlorophenyl)-4,4-dimethylcyclohex-1-en-1-yl]methyl}piperazin-1-yl)-2-(1H-pyrrolo[2,3-b]pyridin-5-yloxy)benzamide] are 0.031 nM and 64 nM.
On the same counts, the results for `CC1(C)CCC(CN2CCN(c3ccc(C(=O)NS(=O)(=O)c4cnc(OC[C@H]5CC[C@@](O)(CO)CC5)c(Cl)c4)c(Oc4cnc5[nH]ccc5c4)c3)CC2)=C(c2ccc(Cl)cc2)C1` [Example 401, N-[(5-chloro-6-{[trans-4-hydroxy-4-(hydroxymethyl)cyclohexyl]methoxy}pyridin-3-yl)sulfonyl]-4-(4-{[2-(4-chlorophenyl)-4,4-dimethylcyclohex-1-en-1-yl]methyl}piperazin-1-yl)-2-(1H-pyrrolo[2,3-b]pyridin-5-yloxy)benzamide] are less than 0.01 nM and 26.6 nM.
For `O=C(NS(=O)(=O)c1ccc(NCC2CCOCC2)c([N+](=O)[O-])c1)c1ccc(N2CCN(CC3=C(c4ccc(Cl)cc4)CCCC3)CC2)cc1Oc1cnc2[nH]ccc2c1` [Example 403, 4-(4-{[2-(4-chlorophenyl)cyclohex-1-en-1-yl]methyl}piperazin-1-yl)-N-({3-nitro-4-[(tetrahydro-2H-pyran-4-ylmethyl)amino]phenyl}sulfonyl)-2-(1H-pyrrolo[2,3-b]pyridin-5-yloxy)benzamide], in that order: less than 0.01 nM and 34 nM.
As for `CC1(C(=O)O)CCC(c2ccc(Cl)cc2)=C(CN2CCN(c3ccc(C(=O)NS(=O)(=O)c4ccc(NCC5CCOCC5)c([N+](=O)[O-])c4)c(Oc4cnc5[nH]ccc5c4)c3)CC2)C1` (stereo not drawn) [Example 404, 4-(4-chlorophenyl)-1-methyl-3-[(4-{4-[({3-nitro-4-[(tetrahydro-2H-pyran-4-ylmethyl)amino]phenyl}sulfonyl)carbamoyl]-3-(1H-pyrrolo[2,3-b]pyridin-5-yloxy)phenyl}piperazin-1-yl)methyl]cyclohex-3-ene-1-carboxylic acid], the Ki on GST-Bc1-2 was less than 0.01 nM. This compound gave a half-maximal effective concentration (EC50) in the experiment on RS4;11 cells [2] of more than 1000 nM.
